From patent US9138449B2, “Medicinal composition for liver diseases” (Shanghai Sundise Chinese Medicine Technology Development …, priority 2006, dated 2015)
Marks after values point to notes of the source that are not given here.

Legend:
[1] = test system: liver fibrosis model in rat induced by CCl4; experiment: Prophylaxis action on liver fibrosis in rats induced by CCl4 with high lipid, low protein food; type: in vivo
Experimental: Pharmacological model: The liver fibrosis model in rat was induced by hypodermical injection of CCl4 and fed with the food containing high lipid and low protein. 100 wt % CCl4 was used at the first injection with a dosage of 1 ml/kg wt rat, then 40 wt % CCl4 in olive oil with a dosage of 3 ml/kg wt. was applied, twice per week and lasting for 2 weeks. During the first 2 weeks of intoxication, the rats were fed with the food containing 79.5 wt % maizena, 20 wt % grease and 0.5 wt % cholesterol, then with the pure maize food for later 4 weeks.
All dosages were 10 times human dosage with 65 kg by the same body weight.

[2] = test system: hepatic fibrosis in rats induced by dimethylnitrosamine (DMN); experiment: Treatment effect on hepatic fibrosis in rats induced by dimethylnitrosamine (DMN); type: in vivo, rat
Experimental: Pharmacological model: The hepatic fibrosis model was induced by intraperitoneal injections of dimethylnitrosamine at a dosage of […] rat wt, the injection was given on the first consecutive 3 days of each week over a period of 4 weeks, once per day.
Groups and drug administration: After establishing the model, the model rats were divided into model control, Fuzheng Huayu Prep I, Fuzheng Huayu Prep II, and (N-Acetylcysteine, NAC) groups, also normal rats was set as the normal control, with total 5 groups. The model rats in Fuzheng Huayu Prep I and II took orally Fuzheng Huayu decoction at the dosage of 4.6 g/kg rat wt from the beginning of the 5th week to end of the 8th week, one time per day for 4 weeks, NAC group received NAC at the dosage of 100 mg/kg wt, and controls took the same volume of saline. (body weight equivalent to 10 times of 65 kg adult dosage).

[3] = CCl4 fibrotic rats, 6 weeks dosing, x ± s
[4] = Preps 4.6 g/kg or VitE 50 mg/kg orally once daily for 6 weeks
[5] = DMN fibrotic rats, 4 weeks treatment, x ± s
[6] = Preps 4.6 g/kg or NAC 100 mg/kg once daily, weeks 5-8

Vitamin E [Vit E]
Liver tissue pathological examination (hepatic inflammation, collagen deposition; HE and Sirius red staining), in words ([1]; CCl4 fibrotic rats, vs. model control): much better conditions of hepatic inflammation compared to the controls | Hepatic Hyp [1, 3]: 296.2 ± 49.8 μg/g liver | Hepatic MDA [1, 3]: 4.5 ± 1.3 μmol/g protien | Hepatic SOD [1, 3]: 1062 ± 83 NU/g liver | Hepatic Triglyceride [1, 3]: 12.6 ± 3.7 μg/g liver | Serum ALT [1, 3]: 106.4 ± 45.9 U/L | Serum AST [1, 3]: 127.7 ± 37.2 U/L | Serum T. BIL [1, 3]: 14.1 ± 3.3 µmol/L | Serum T. Protein [1, 3]: 55.8 ± 4.2 g/L | Liver fibrotic stage S0 (number of rats) [1, 4]: 0 | Liver fibrotic stage S1 (number of rats) [1, 4]: 6 | Liver fibrotic stage S2 (number of rats) [1, 4]: 6 | Liver fibrotic stage S3 (number of rats) [1, 4]: 2 | Liver fibrotic stage S4 (number of rats) [1, 4]: 0 | R (Ridit examination of liver fibrotic stages) [1, 4]: 0.506^#

CC(=O)N[C@@H](CS)C(=O)O [NAC, N-Acetylcysteine]
Hepatic Hyp content [2, 5]: 482.1 ± 124.4 μg/g liver | Hepatic SOD activity [2, 5]: 252.2 ± 47.6^# 10^3 × NU/g protein | Serum ALT [2, 5]: 67.7 ± 36.1 U/L | Serum AST [2, 5]: 76.5 ± 25.5 U/L | Serum Alb [2, 5]: 30.9 ± 5.5 g/L | Serum T. BIL [2, 5]: 18.8 ± 2.8 µmol/L | Serum T. Protein [2, 5]: 60.4 ± 11.2 g/L | Liver fibrotic stage S0 (number of rats) [2, 6]: 0 | Liver fibrotic stage S1 (number of rats) [2, 6]: 1 | Liver fibrotic stage S2 (number of rats) [2, 6]: 5 | Liver fibrotic stage S3 (number of rats) [2, 6]: 4 | Liver fibrotic stage S4 (number of rats) [2, 6]: 2 | R (Ridit examination of liver fibrotic stages) [2, 6]: 0.415^#
